Test results reported in US4581360A, “Sparsomycin (Sc -Rs) derivative; pharmaceutical composition having anti-tumor activity” (priority 1982, dated 1986).
pIC50: −log10 of the molar value. Values after ≈ are worked out from the molar mass of the structure shown. Where two headings read alike, the source gives them in different places.

Columns and labels:
leukemia L 1210 cells = test: in-vitro clonogenic L 1210 assay (inhibition of colony formation in soft agar); format: cell-based; conditions: for IC50: Mus musculus, L1210, 72 h, read-out: ID50 (dose giving 50% inhibition of L 1210 colony formation)
Description: The in-vitro clonogenic assay was effected in leukemia L 1210 cells in soft agar medium (0.3%). There is a good correlation between the activity in vitro and that in vivo of the medicaments investigated. On the basis of the findings in the in-vitro analysis, therefore, the in-vivo activity can be predicted with good results. In the analysis, the inhibition of the L 1210 colony formation by sparsomycin and derivates thereof is determined for various concentrations, and the dose giving 50% inhibition of the colony formation, as compared with non-treated control cells is calculated (ID50). The analysis is carried out as follows (variant of the method described in Cancer Chemother.Rep. (1967), 51, 451).
From a suspension culture one hundred L 1210 cells are plated out in 35 mm culture dishes (Falcon) containing 1 ml soft agar culture medium and the compound to be investigated in suitable concentrations. The soft agar culture medium consists of Dulbecco's medium supplemented with 20% horse serum, 60 μmole 2-mercaptoethanol, 20 mg/ml L-asparagine, 75 mg/ml DEAE dextran (molecular weight 2×10^6) and 0.3% bacto agar (Difco). The culture dishes were incubated at 37° C. in an atmosphere of 10% CO2 in humidified air for 3 days. After this period of continuous exposure to the medicament the colonies were counted and dose-effect curves made. From these curves, the medicament dose is calculated which causes 50% inhibition of the colony formation as compared with non-treated control cells.

[1] = system: ribosomes from E. coli (peptidyl transferase); test: fragment reaction, cell-free system; format: biochemical; conditions: 30% ethanol in water, 30 min, read-out: ED50 E. coli fragment reaction
Description: (§1) The activity of the novel compounds was also measured in two cell-free systems, namely Saccharomyces cerevisiae and E. coli, a […]. The inhibition of the protein biosynthesis was measured, and this in two ways, by means of both the fragment reaction (R. E. Monro, Methods Enzymol. 1971, 20, 472) and the inhibition of the polyphenylalanine synthesis (N. W. Nirenberg, H. Matthei, Proc.Natl. Acad. Sci. USA 1961, 47, 1588). The concentration of sparsomycin or an analog giving 50% inhibition of the protein synthesis relative to the control is given as ED50.
(§2) Fragment reaction. The reaction described originally by Monro (see reference in the text) was carried out in 150 μl of 33 mM Tris-HCl pH 7.4, 270 mM KCl, 13 mM magnesium acetate containing 1 mg/ml of ribosomes, 2.10^-3 M puromycin, 1 pmol of (^3 H)Leu-ACCAC(U), the required concentration of sparsomycin analog as indicated in the text and 33% ethanol. The reaction was initiated by the addition of the alcohol and allowed to proceed at 0° C. for 30 min. and then stopped by the addition of 100 μl of 0.3M sodium acetate pH 5.5 saturated with MgSO4. The samples were extracted with 1.5 ml of ethyl acetate and 1 ml of the organic phase was checked for radioactivity.
(§3) The 3' terminal pentanucleotide (^3 H)Leu-ACCAC(U) was prepared from (^3 H)Leu-tRNA by ribonuclease T1 as described (Monro, as above).
(§4) Ribosomes and supernatant fractions from E. coli and Saccharomyces cerevisiae were prepared according to standard procedures (Staehelin, T. and Maglott D. R. (1971). Methods Enzymol. 20, 449-456; Sanchez-Madrid, F., Reyes, R., Conde, P. and Ballesta, J. P. G. (1979) Eur. J. Biochem. 98, 409-416).

[2] = system: ribosomes from Saccharomyces cerevisiae (peptidyl transferase); test: fragment reaction, cell-free system; format: biochemical; conditions: 30% ethanol in water, 30 min, read-out: ED50 s.c. fragment reaction
Description: as §1, §2, §3, §4

[3] = system: ribosomes from Saccharomyces cerevisiae (protein synthesis); test: inhibition of polyphenylalanine synthesis, cell-free system; format: biochemical; conditions: 30 min, read-out: ED50 s.c. polyphe
Description: as §1
(§5) Polyphenylalanine synthesis. The reaction mixture was slightly different for E. coli and for yeast.
E. coli. The reaction mixture (50 μl) contained 65 mM Tris-HCl pH 7.6, 15 mM MgCl2, 90 mM KCl, 15 mM β-mercaptoethanol, 1 mM GTP, 10 mM ATP, 0.2 mg/ml of polyuridylic acid, 1.5 mg/ml of tRNA, 10 μM of ribosomes, 2.5 mg/ml of phosphoenolpyruvate, 20 μg/ml of pyruvate kinase, the required concentration of sparsomycin analog, as indicated in the text, and 5 μl of supernatant fraction S-100. (^3 H)phenylalanine 30 μM (about 60 cpm/pmol) was added to start the reaction. Incubation was at 37° C. for 30 min. The reaction was stopped by addition of 1 ml of 10% TCA and the samples filtered through glass fiber. The filters were washed with 10 ml of cold 10% TCA, dried and counted for radioactivity.
Yeast. The test was carried out as indicated above for E. Coli but replacing the phosphoenol pyruvate and pyruvate kinase by creatine phosphokinase (50 μg/ml) and creatine phosphate (20 mM). The incubation was performed at 30° C. for 30 min. and the samples processed as above.
In these conditions the control samples polymerized 3 to […] 14 molecules of phenylalanine per ribosome in the case of yeast and E. coli respectively. […]

[4] = system: ribosomes from E. coli (protein synthesis); test: as above; format: biochemical; conditions: 30 min, read-out: ED50 E. coli polyphe
Description: The activity of the novel compounds was also measured in two cell-free systems, namely Saccharomyces cerevisiae and E. coli, a prokaryotic and a eukaryotic system, respectively.
as §5
E. coli. […] (^3 H)phenylalanine 30 μM (about 60 cpm/pmol) was added to start the reaction. Incubation was at 37° C. for 30 min. The reaction was stopped by addition of 1 ml of 10% TCA and the samples filtered through glass fiber. The filters were washed with 10 ml of cold 10% TCA, dried and counted for radioactivity.

solubility in water = format: physicochemical
Description: The n-octylsparsomycin is poorly dissolved in water (about 0.2 mg/ml water), whereas benzylsparsomycin is dissolved well in water (1.5 mg/ml water). As a consequence, the use of the latter compound is highly attractive.

[5] = acute toxicity (LDx values); format: in vivo; conditions: in vivo, mouse
Source text: (§6) The acute LDx values (lethal dose for x% of the animals) are shown below.

pharmacokinetics in dog = conditions: iv
mouse = test: acute toxicity (LDx values); format: in vivo; conditions: i.p.
Source text: as §6

[6] = clinical tests (Cancer.Chemother.Rep. (1969), 43, 29); cited from earlier work
whole reticulocytes = conditions: Biochem.Biophys. Acta (1966), 119, 109; cited from earlier work
[7] = L 1210 cells, soft agar 0.3%, 3 days continuous exposure

Compound `CSC[S@+]([O-])C[C@H](COC(C)=O)NC(=O)/C=C/c1c(C)[nH]c(=O)[nH]c1=O` [O--acetylsparsomycin, O-acetyl-sparsomycin (Sc -Rs)] has an IC50 (leukemia L 1210 cells; [7]) of 0.15 µg/mL (≈ 0.372 µM), a pIC50 [1] of 4.82 and a pIC50 [2] of 4.30. It also gave a pIC50 [3] of 5.52 and a pIC50 [4] of 5.10.
With `Cc1[nH]c(=O)[nH]c(=O)c1C=CC(=O)NC(CO)C[S+]([O-])CSCc1ccccc1` (stereo not shown) [benzylsparsomycin, Benzylsparsomycin (Sc -Rs)] the solubility (solubility in water; H2O, pH=7, read-out: Solubility in H2O (pH=7)) was 1500 µg/mL (≈ 3430 µM), the solubility (solubility in water; read-out: solubility in water) was 1500 µg/mL (≈ 3430 µM) and the IC50 (leukemia L 1210 cells) was 0.048 µg/mL (≈ 0.11 µM). The pIC50 [4] was 6.10.
For `CCCCCCCCSC[S@+]([O-])C[C@H](CO)NC(=O)/C=C/c1c(C)[nH]c(=O)[nH]c1=O` [n-octylsparsomycin, n-octyl-sparsomycin (Sc -Rs)], the solubility (solubility in water; read-out: solubility in water) was roughly 200 µg/mL (≈ 435 µM), the “activity relative to sparsomycin proper” value (leukemia L 1210 cells; L 1210 colony formation, concentrations in ng/ml) was “approximately 3” and the “activity relative to sparsomycin, concentrations expressed in μmole/ml” value (leukemia L 1210 cells; L 1210 colony formation, concentrations in μmole/ml) was “approximately four times higher”. It also gave an IC50 (leukemia L 1210 cells; [7]) of 0.047 µg/mL (≈ 0.102 µM), a pIC50 [1] of 4.10 and a pIC50 [2] of 3.74. It also gave a pIC50 [3] of 6.46, a pIC50 [4] of 5.82 and an LD50 ([5]; iv) greater than 30 mg/kg. The dose excreted (pharmacokinetics in dog; bile, 0.7 mg/kg) was 3.4%, the AUC (pharmacokinetics in dog; in vivo, 0.7 mg/kg) was 1100 ng·h/mL and the half-life (pharmacokinetics in dog; in vivo, 0.7 mg/kg) was 66 min. For the same compound, the AUC (pharmacokinetics in dog; in vivo, 0.9 mg/kg) was 1200 ng·h/mL, the half-life (pharmacokinetics in dog; in vivo, 0.9 mg/kg) was 96 min and the dose excreted (pharmacokinetics in dog; urine, 0.7 mg/kg) was 0%.
In the case of `CSC[S@+]([O-])C[C@H](CO)NC(=O)/C=C/c1c(C)[nH]c(=O)[nH]c1=O` [sparsomycin, Sparsomycin (Sc -Rs)], the IC50 (leukemia L 1210 cells) was 0.15 µg/mL (≈ 0.415 µM), the pIC50 [1] was 5.22 and the pIC50 [2] was 4.82. It also gave a pIC50 [3] of 5.40, a pIC50 [4] of 5.05 and an LD50 ([5]; ip) of 14 mg/kg. The LD10 (mouse) was 8.0 mg per kg mouse, the “toxicity in clinical tests” value [6] was “eye toxicity” and the “activity against whole reticulocytes” value (whole reticulocytes) was “not active”. For the same compound, the AUC (pharmacokinetics in dog; in vivo, 0.7 mg/kg) was 1300 ng·h/mL, the half-life (pharmacokinetics in dog; in vivo, 0.7 mg/kg) was 66 min and the dose excreted (pharmacokinetics in dog; in vivo, 0.7 mg/kg, Recovery in urine, i.v. bolus) was 24%. For the same compound, the AUC (pharmacokinetics in dog; in vivo, 1.48 mg/kg) was 10800 ng·h/mL, the half-life (pharmacokinetics in dog; in vivo, 1.48 mg/kg) was 138 min and the dose excreted (pharmacokinetics in dog; in vivo, 1.48 mg/kg, Recovery in gall liquid, i.v. bolus) was 2%. The dose excreted (pharmacokinetics in dog; in vivo, 1.48 mg/kg, Recovery in urine, i.v. bolus) was 55%.
